According to PMC9182202 (Molecules, 2022):
≈ marks a conversion by molar mass, not a printed value.

Columns and labels:
[1] = target: T1, BChE (horse serum) (Equus caballus, UniProt P81908); assay: biochemical; assay type: biochemical
T1 construct: purchased Sigma-Aldrich Corporation; host or cells: horse serum
Experimental: (§1) The enzyme activity was measured in vitro via a modified spectrophotometric method developed by Ellman et al.. Acetylthiocholine iodide (ATCh) and butyrylthiocholine chloride (BTCh) were used as substrates for the AChE and BChE enzymes, respectively. Ellman reagent, i.e., 5,5-dithiobis (2-nitro) benzoic acid (DTNB), was used to produce the chromogenic indicator for the measurement of the ChE activity using a SpectraMax microplate spectrophotometer (Molecular Devices, CA, USA), as reported previously.
(§2) The IC50 values were calculated using the EZ-Fit program (Perrella Scientific Inc., Amherst, MA, USA). Lineweaver–Burk plots, Dixon plots, and their secondary replots were used to observe the effects of the compound on the values of Km and Vmax. Dixon plots, Lineweaver–Burk plots, and the secondary replots of Lineweaver–Burk plots were used to determine Ki values using initial velocities. […] The graphical analysis of the Dixon plots, Lineweaver–Burk plots, and their secondary plots was used to determine the inhibition type.

[2] = test system: phosphodiesterase
Experimental: (§3) To test the selectivity of the compound, Sarcorucinine-D was also tested for the inhibition of several other enzymes such as phosphodiesterase, α-glucosidase, β-glucuronidase, and urease enzymes. The assays of these enzymes are reported elsewhere.

[3] = test system: α-glucosidase
Experimental: as §3

[4] = test system: MDBK cells; assay: MTT cytotoxicity test; settings: MDBK, MTT, concentration range 0.019–1.56 μg/mL, 72 h
Experimental: (§4) The MTT (3-[4,5-dimethylthazol-2-yl]-2,5-diphenyltetrazolium bromide) test was performed using MDBK adherent cells.

[5] = MTT cytotoxicity test; settings: bovine, MDBK adherent cells
Experimental: as §4

[6] = target: T2, Torpedo californica AChE (TcAChE) (Tetronarce californica, UniProt P04058); assay: biochemical; settings: mean ± SEM of three experiments
T2 construct: purchased Sigma-Aldrich Corporation
Experimental: as §1, §2

[7] = test system: β-glucuronidase; assay: Selectivity screen: β-glucuronidase inhibition; assay type: biochemical
[8] = test system: urease; assay: Selectivity screen: urease inhibition; assay type: biochemical
[9] = test system: voltage-dependent Ca^2+ channels; assay: Ca2+ concentration-response curves in Ca2+-free medium, rabbit jejunum; settings: Ca^2+-free medium, Sarcorucinine-D 10–30 µg/mL, verapamil 0.05–0.5 µg/mL
Experimental: Another set of confirmatory experiments was also performed to be sure of any potential CCB activity. For this, the regular Tyrode’s physiological salt solution in which the tissues were originally immersed was removed. The baths were filled with a Ca^2+–free Tyrode’s solution with EDTA (0.1 mM). The tissues were left in this solution for half an hour. Later, another replacement was carried out using K^+-rich and Ca^2+-free Tyrode’s solution. The tissues were again left to stabilize for half an hour, and then, the control concentration–response curves of Ca^2+ were constructed and recorded. These control Ca^2+ concentration–response curves were duplicated after pretreatment of the tissues for one hour with different concentrations of Sarcorucinine-D. Any possible CCB effect of Sarcorucinine-D would tend to displace the Ca^2+ concentration–response curves to the right-hand side. The effects of Sarcorucinine-D were compared to those of a standard CCB, verapamil.

T1 sequence (P81908 whole entry): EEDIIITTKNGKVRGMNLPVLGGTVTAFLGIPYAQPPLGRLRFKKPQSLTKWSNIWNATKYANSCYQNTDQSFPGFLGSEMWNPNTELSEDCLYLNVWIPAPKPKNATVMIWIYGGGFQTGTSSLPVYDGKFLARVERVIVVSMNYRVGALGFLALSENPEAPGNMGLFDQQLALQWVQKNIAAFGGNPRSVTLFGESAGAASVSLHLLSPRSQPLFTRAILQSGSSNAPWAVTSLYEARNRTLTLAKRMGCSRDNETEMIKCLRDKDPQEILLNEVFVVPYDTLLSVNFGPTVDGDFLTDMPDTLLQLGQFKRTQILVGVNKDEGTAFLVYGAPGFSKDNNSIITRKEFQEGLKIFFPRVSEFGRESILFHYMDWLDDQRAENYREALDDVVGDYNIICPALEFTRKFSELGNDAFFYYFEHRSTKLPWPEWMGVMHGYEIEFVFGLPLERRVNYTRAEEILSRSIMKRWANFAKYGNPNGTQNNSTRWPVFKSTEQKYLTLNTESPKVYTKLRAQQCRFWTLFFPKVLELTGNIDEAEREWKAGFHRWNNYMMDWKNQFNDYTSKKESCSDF
T2 sequence (P04058 22-586): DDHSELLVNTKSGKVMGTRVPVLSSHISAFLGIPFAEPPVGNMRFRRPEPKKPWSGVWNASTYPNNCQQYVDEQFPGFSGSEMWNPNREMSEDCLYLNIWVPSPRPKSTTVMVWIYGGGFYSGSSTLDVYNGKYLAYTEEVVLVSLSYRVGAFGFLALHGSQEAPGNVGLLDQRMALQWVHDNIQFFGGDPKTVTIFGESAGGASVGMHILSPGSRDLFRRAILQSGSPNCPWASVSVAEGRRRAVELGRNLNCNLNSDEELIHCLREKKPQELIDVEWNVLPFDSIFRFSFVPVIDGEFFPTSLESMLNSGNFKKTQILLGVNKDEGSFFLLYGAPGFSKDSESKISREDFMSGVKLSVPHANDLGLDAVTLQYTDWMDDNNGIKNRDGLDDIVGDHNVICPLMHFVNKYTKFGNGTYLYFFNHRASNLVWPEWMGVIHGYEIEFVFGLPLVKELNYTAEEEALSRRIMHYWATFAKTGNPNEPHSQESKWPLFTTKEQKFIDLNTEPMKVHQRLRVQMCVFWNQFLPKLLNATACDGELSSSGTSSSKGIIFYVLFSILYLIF

SMILES	IC50 [1] [µM]	Ki [1] [µM]	Selectivity toward BChE over AChE ([1]; from the data of Table 1)	Selectivity screen result, phosphodiesterase [2]	Selectivity screen result, α-glucosidase [3]	Cytotoxic effect at low concentrations [4]	IC50 at 72 h [5] [µg/mL]	Ki ([6]; from Dixon plot, Lineweaver–Burk plot and secondary replots, read-out: Acetylcholinesterase Ki) [µM]	IC50 ([6]; read-out: Acetylcholinesterase IC50) [µM]	Selectivity screen result, β-glucuronidase [7]	Selectivity screen result, urease [8]	Effect on CaCl2 concentration–response curves [9]
CC(C1CCC2C3CCC4CC(O)CCC4(C)C3CCC21C)N(C)C (stereo not shown) [Sarcorucinine-D]	8.87 ± 0.56	4.66 ± 0.3	approximately 22 times	selective ChE inhibitor	selective ChE inhibitor	No cytotoxic effect	2.24 (≈ 6.44 µM)	103 ± 6.67	42.9 ± 3.13	selective ChE inhibitor	selective ChE inhibitor	displaced the CaCl2 curves to the right
COc1ccc(CCN(C)CCCC(C#N)(c2ccc(OC)c(OC)c2)C(C)C)cc1OC (stereo not shown) [verapamil, reference compound]												displaced the CaCl2 curves to the right
